The values below come from patent publication US8778882B2, “Agent for strengthening calcium containing tissue and use thereof” (Hayashibara Co., Ltd., priority 2002, dated 2014).

Test [1] concerns Mouse MC3T3-E1 cells. Description: Calcium deposition by alizarin red-S staining. It counts as cell-based. The conditions noted are these: MC3T3-E1, 20 mM each compound (so in the source), eight days, alizarin red-S red color judgement. Further details: key: +: same strength of red color as a negative control (only medium containing 0.2% (v/v) ethanol); ++: half strength of the positive control; +++: same strength of red color as a positive control (indomethacin). The text has this: Following Experiment 1 which investigates differentiating pre-osteoblastic cells into osteoblastic cells, some of organic compounds were investigated whether they actually enhance calcium deposition or not. Indomethacin (commercialized by Funakoshi, Co., Ltd., Tokyo, Japan) (positive control), kaempferol (commercialized by Funakoshi, Co., Ltd., Tokyo, Japan), hesperetin (commercialized by Funakoshi, Co., Ltd., Tokyo, Japan), gallic acid (commercialized by Nacalai Tesque, Kyoto, Japan), and coffeic acid (commercialized by Wako Pure Chemical Industries, Osaka, Japan) were selected as organic compounds. Mouse MC3T3-E1 cells were treated with 20 mM each above compound dissolved in 1 ml of α-MEM medium supplemented with 10% (v/v) fetal calf serum and containing 10 mM β-glycerophosphate. Since final ethanol concentration in the medium is 0.2% (v/v), α-MEM medium containing 0.2% (v/v) ethanol was prepared as a negative control. The cells were inoculated for eight days as changing the medium therewith to fresh medium with or without each sample per three days. The cells were applied to measure calcium deposition therein by usual alizarin red-S staining method. Briefly to the cells washed with 1 ml of Dulbecco phosphate buffer saline twice after removing the medium were added 1 ml of 50 (v/v) % ethanol aqueous solution and incubated for 10 minutes. After removing the 50 (v/v) % ethanol aqueous solution, the cells were incubated with 1 ml of distilled water for 10 minutes. After removing the water, the cells were applied with 1 ml of 1% (w/v) alizarin red-S solution, incubated for 10 minutes, and washed with 1 ml of distilled water for three times after removing alizarin red-S solution. Then, the calcium deposition amount was measured in a manner of judging red color on the plate bottom since deposited calcium was stained by the above treatment. The judgement criterion “+” means same strength of red color as a negative control (only medium containing 0.2% (v/v) ethanol), “+++” means same strength of red color as a positive control (indomethacin), and “++” means half strength of the positive control.

For test [2], the system named is mouse pre-osteoblastic cell MC3T3-E1. In words: Alkaline phosphatase activity in mouse pre-osteoblastic cells. It counts as cell-based. The conditions noted are these: for activity at 20 µM: Mus musculus. As to the method: To increase number of osteoblastic cells having calcium-deposition activity is important for increasing bone mass. […] The activity is at low level in pre-osteoblastic cells and at high level in osteoblastic cells differentiated form the pre-osteoblastic cells. […] Since final ethanol concentration in the medium is 0.2% (v/v), α-MEM medium containing 0.2% (v/v) ethanol was prepared as a negative control. The cells were inoculated for eight days as changing the medium therewith to fresh medium with or without each sample per three days. Alkaline phosphatase activity was measured using “Alkaline Phospha B-Test Wako” (commercialized by Wako Pure Chemical Industries, Osaka, Japan) according with Kajii et al (Archives of Oral Biology, Vol. 44, pp. 233-241, (1999)). Briefly, to the above described mouse pre-osteoblastic cells washed with 1 ml of 0.25 M sucrose solution three times after removing the medium were added 0.45 ml of 50 mM carbonate salt buffer (pH9.8) containing 1 mM magnesium chloride and 50 mM sucrose and 0.05 ml of 3.4 mM disodium p-nitrophenyl phosphate in due course. The mixture was incubated at 25° C. for five minutes and admixed with 1.5 ml of 0.6N sodium hydroxide as a reaction terminator. Absorbance 405 nm of p-nitrophenol generated by alkaline phosphatase in the resulting mixture was measured, and the obtained values were used as values as alkaline phosphatase activity. […] The experiment was performed by the method according to Experiment 1 except that culture day in the medium containing each sample was three, six or nine, and concentration of each sample was 5, 10 or 20 μM. […] As a negative control, mediums containing ethanol in the above concentration were prepared for calculating relative activity to the activity of each control.

For test [3] the test system is unchanged. Description: Calcium deposition amount by Calcium C Test Wako. It counts as cell-based. The text has this: Other flavonoid compounds than kaempferol or hesperetin were investigated where they have the same effect or not. Flavone (commercialized by Kanto Kagaku, Tokyo, Japan), apigenin (commercialized by Funakoshi, Co., Ltd., Tokyo, Japan), flavonol (commercialized by Tokyo Kasei Kogyo, Co., Ltd., Tokyo, Japan), quercetin (commercialized by Kanto Kagaku, Tokyo, Japan), kaempferol (commercialized by Funakoshi, Co., Ltd., Tokyo, Japan), rutin (commercialized by Kanto Kagaku, Tokyo, Japan), flavanone (commercialized by Kanto Kagaku, Tokyo, Japan), naringenin (commercialized by Ardrich Corporation), hesperetin (commercialized by Funakoshi, Co., Ltd., Tokyo, Japan), hesperidin (commercialized by Kanto Kagaku, Tokyo, Japan), chalcone (commercialized by Merk Corporation), fuloretin (commercialized by Sigma Corporation), catechin (commercialized by Sigma Corporation), ipriflavone (commercialized by Daito Corporation, Toyama, Japan), taxifolin (commercialized by Funakoshi, Co., Ltd., Tokyo, Japan), sulfuretin (commercialized by Funakoshi, Co., Ltd.; Tokyo, Japan), or cyanidin (commercialized by Funakoshi, Co., Ltd., Tokyo, Japan) was selected as test samples. Alkaline phosphatase activity was measured by the method of Experiment 1. Calcium deposition was measured by usual method using “Calcium C Test Wako” (commercialized by Wako Pure Chemical Industries, Osaka, Japan), briefly, cultured cells were washed with 1 ml of Dulbecco phosphate buffer saline three times after removing the medium. To the resultant was added 0.5 ml of 2N hydrochloric acid to resolve deposited calcium. To 5 μl of the resultant solution were added 0.5 ml of 0.88M monoethanolamine buffer (pH11) and 0.05 ml of 0.63 mM o-cresolphthalein complexone solution (binding to calcium ion to form chelate complex) containing 69 mM 8-quinolinol and mixed. Calcium amount per one hole of the plate was calculated by measuring absorbance 570 nm of the resultants and standardizing with a standard calcium solution. The judgement of alkaline phosphatase activity or calcium deposition amount of each sample was to calculate the relative activity or the relative calcium deposition amount to the negative control (only medium containing 0.2% (v/v) ethanol) and to compare each other.
The enhancement of calcium deposition between kaempferol and ipripfavone were compared. Test samples and their adding manner were same as Experiment 4. Calcium deposition amount was measured by usual method using “Calcium C Test Wako” (commercialized by Wako Pure Chemical Industries, Osaka, Japan); briefly, cultured cells were washed with 1 ml of Dulbecco phosphate buffer saline three times after removing the medium. To the resultant was added 0.5 ml of 2N hydrochloric acid to resolve deposited calcium. To 5 μl of the resolving solution were added 0.5 ml of 0.88M monoethanolamine buffer (pH11) and 0.05 ml of 0.63 mM o-cresolphthalein complexone solution (binding to calcium ion to form chelate complex) containing 69 mM 8-quinolinol and mixed, Calcium amount per one hole of the plate was calculated by measuring absorbance 570 nm of the resultants and standardizing with a standard calcium solution.
Kaempferol or hesperetin in combination with ipriflavone, or a kind of isoflavones, was investigated whether to enhance calcium deposition or not. Methods for preparing samples and culturing the cells were the same method described in Experiment 1 except culturing the cells for five days, Method for measuring calcium was the same method described in Experiment 3 and 5. Final ethanol concentration of the medium containing each sample was adjusted as same concentration.

The subject of test [4] is Rat Femur and Tibia. Description: Enhancing calcium deposition in rat femur and tibia. It counts as in vivo. The conditions noted are these: for Calcium Content Per One Dried Bone / Dried Bone Mass: rats fed sample in high sucrose feeding stuff for eight weeks. The procedure:
The experiment was performed using six three-weeks-aged female Wister rats per one group. The rats were fed with high sucrose feeding stuff containing ingredients listed Table 11 (In the Table, each value means “weight %”.) and one part by weight of each test sample; hesperetin (commercialized by Funakoshi, Co., Ltd., Tokyo, Japan), quercetin (commercialized by Tokyo Kasei Kogyo, Co., Ltd., Tokyo, Japan), α-glycosyl hesperidin (product name “αG HESPERIDINE”, commercialized by Hayashibara Shoji Inc., Okayama, Japan), α-glycosyl rutin (product name “αG RUTIN P”, commercialized by Hayashibara Shoji Inc., Okayama, Japan), or ipriflavone (commercialized by Daito Corporation, Toyama, Japan) (positive control). As a negative control, rats fed with feedstuff containing one part by weight of sucrose replacing test sample were prepared. The rats were allowed to freely take water. The rats were killed after eight weeks, and then, their femurs and tibias were excised. Each femur or tibia dried at 100° C. for about six hours was measured by electric even balance for high precision analysis (product name “HA180M/12QM”, commercialized by A & D Co, Ltd., Tokyo, Japan), and then, each bone was placed into a crucible and burned in an incinerator at 950° C. for six hours. The cinerary resultant was resolved in hydrochloric solution and provided for measuring calcium amount by atomic absorption photometer. Calcium amount per one dried bone was calculated and compared each other.

The mark [5] stands for this setting: 192 h, MC3T3-E1, 20 mM each compound (so in the source), eight days, relative to 0.2% (v/v) ethanol negative control.

For the compound `O=C(O)c1cc(O)c(O)c(O)c1` [Gallic Acid, gallic acid], the “Calcium Deposition Amount” value in test [1] is “+”. For the same compound, the activity at 20 µM in test [2] (setting [5]) amounted to 79%.
As for `O=c1c(O)c(-c2ccc(O)cc2)oc2cc(O)cc(O)c12` [Kaempferol], in test [1], the “Calcium Deposition Amount” value is given as “+++”. Further, the activity at 20 µM in test [2] (setting [5]) was 162%; in test [2] (MC3T3-E1, flavonoid comparison, method of Experiment 1, relative to 0.2% (v/v) ethanol negative control), 162%; in test [3] (Mus musculus, MC3T3-E1, flavonoid comparison, Calcium C Test Wako, relative to 0.2% (v/v) ethanol negative control), 305%.
Take `COc1ccc2c(c1)c(CC(=O)O)c(C)n2C(=O)c1ccc(Cl)cc1` [Indomethacin, indomethacin, reference compound]: the “Calcium Deposition Amount” value in test [1] is “+++”. The activity at 20 µM in test [2] (setting [5]) was determined as 142%.
With `O=C(O)/C=C/c1ccc(O)c(O)c1` [Coffeic Acid, coffeic acid], the “Calcium Deposition Amount” value in test [1] is recorded as “+”. Further, the “Relative Alkaline Phosphatase Activity (%)” value in test [2] (MC3T3-E1, 20 mM each compound (so in the source), eight days, relative to 0.2% (v/v) ethanol negative control) is listed as 97%.
α-glycosyl rutin: the “Calcium Content Per One Dried Bone” value in test [4] (Femur) stood at 119.9 mg; in test [4] (Tibia), 107.7 mg. Moreover, the results for the “Dried Bone Mass” value in test [4] (Femur) and in test [4] (Tibia) were 0.439 g and 0.343 g, respectively. Further, the “calcium deposition in femur and tibia” value in test [4] (rats, eight weeks feeding) was “increase of calcium deposition content”. In addition, the “alkaline phosphatase activity in vitro” value in test [2] (glycosides, in vitro) is given as “did not demonstrate”. For the same compound, the “calcium deposition in vitro” value in test [3] (glycosides, in vitro) was “did not demonstrate”.
